Measurements reported in PMC7046201, “Unexpected differences in the pharmacokinetics of N-acetyl-DL-leucine enantiomers after oral dosing and their clinical relevance” (PLoS ONE, 2020).
Where “and” joins values, the source holds several entries; their conditions need not be identical. Equal values may be shown once.

What was measured:
[1] = parameters: method as in Neuzil et al. 2002; details: humans, oral absorption; ref Neuzil et al. 2002; cited from earlier work
[2] = Skeletal muscle concentration of enantiomers after oral dosing of mice; type: in vivo, male BALB/c mice; details: individual mice
Description: (§1) In addition to plasma, skeletal muscle and brain tissue was also taken at less frequent time points (0.5, 2, 6, 24 and 48 h) and prepared for analysis by homogenization of 50 mg of tissue with 100 μL of acetonitrile. The samples were transferred to Waters 96-well plate and the sample was evaporated under nitrogen gas flow. The sample was reconstituted into 150 μl of 50% methanol:water and analysed by LC/MS. […] These samples were then prepared for analysis in the same way as the samples. […] QC samples from racemic-N-Acetyl-Leucine were prepared into concentrations of 40, 400 and 4000 ng/mL, corresponding to 20, 200 and 200 ng/mL concentration of both D- and L-enantiomers, respectively. […] QC samples were then prepared for analysis in the same way as the samples.
(§2) Quantification by HPLC was performed using a Supelco Astec CHIROBIOTIC T chiral HPLC column (2.1 x 150 mm, 5 μm particle size) with a Waters Acquity UPLC + Thermo Q-Exactive hybrid Orbitrap MS, using ESI negative polarity, nitrogen auxiliary gas (450°C), capillary voltage was 2000 and 350°C and controlled with the software Xcalibur 4.1. Samples were injected as a 4-μL volume and eluted with a gradient of buffer A (20 mM ammonium acetate) and buffer B (methanol) with a flow rate of 0.3 mL/min and column oven temperature of 30°C. The gradient was 80% A at 0 min; 20% A at 3.5 min and 80% A at 4.5 min Parallel Reaction Monitoring (PRM) and Full-MS-dd-MS2 were measured at the same time. […] Ions with aforementioned m/z was then collided and leucine fragment (m/z 130 or 134) was used in quantitation. In full-MS-dd-MS2 mode, every ion with intensity over a certain intensity was collided and fragments analyzed.

[3] = Brain concentration of enantiomers after oral dosing of mice; type: in vivo, male BALB/c mice
Description: as §1, §2

[4] = Plasma pharmacokinetics of N-acetyl-leucine enantiomers after oral dosing of mice
Description: The animals were weighed on the day prior to dosing. The compound was administered to male BALB/c mice (n = 3 per time point) p.o. (100 mg/kg; 10 mL/kg) by oral gavage. Blood samples were collected into potassium EDTA tubes by venepuncture from the saphenous vein. Within 30 min following the sampling, blood was centrifuged for plasma separation (room temperature; 10 min; 2700 xg). The plasma samples were transferred into plastic tubes, frozen and stored at –20°C.
The plasma samples were prepared for analysis by mixing 50 μL of plasma with 100 μL of acetonitrile and mixed. In addition to plasma, skeletal muscle and brain tissue was also taken at less frequent time points (0.5, 2, 6, 24 and 48 h) and prepared for analysis by homogenization of 50 mg of tissue with 100 μL of acetonitrile. The samples were transferred to Waters 96-well plate and the sample was evaporated under nitrogen gas flow. The sample was reconstituted into 150 μl of 50% methanol:water and analysed by LC/MS. Standard plasma samples were prepared by spiking the injection solution with concentrations from 1 to 10 000 ng/mL by using one volume of spiking solution and nine volumes of injection solution. These samples were then prepared for analysis in the same way as the samples. […] QC samples from racemic-N-Acetyl-Leucine were prepared into concentrations of 40, 400 and 4000 ng/mL, corresponding to […] concentration of both D- and L-enantiomers, respectively. […] QC samples were then prepared for analysis in the same way as the samples.
Quantification by HPLC was performed using a Supelco Astec CHIROBIOTIC T chiral HPLC column (2.1 x 150 mm, 5 μm particle size) with a Waters Acquity UPLC + Thermo Q-Exactive hybrid Orbitrap MS, using ESI negative polarity, nitrogen auxiliary gas (450°C), capillary voltage was […] and controlled with the software Xcalibur 4.1. Samples were injected as a 4-μL volume and eluted with a gradient of buffer A (20 mM ammonium acetate) and buffer B (methanol) with a flow rate of 0.3 mL/min and column oven temperature of 30°C. The gradient was 80% A at 0 min; 20% A at 3.5 min and 80% A at 4.5 min Parallel Reaction Monitoring (PRM) and Full-MS-dd-MS2 were measured at the same time. […] Ions with aforementioned m/z was then collided and leucine fragment (m/z 130 or 134) was used in quantitation. In full-MS-dd-MS2 mode, every ion with intensity over a certain intensity was collided and fragments analyzed.
Plasma pharmacokinetic parameters of the N-acetyl-leucine enantiomers were calculated using Phoenix 64 (Build 6.4.0.768) WinNonlin (version 6.4) software, using non-compartmental method with sparse sampling. Nominal doses were used for all animals. The terminal phase half-life (T1/2), the time for 50% of the plasma concentration to decrease after some point of elimination, was calculated by least-squares regression analysis of the terminal linear part of the log concentration–time curve using the relationship 0.693/ke. The area under the plasma concentration–time curve (AUC), an estimation of plasma drug exposure over time, was determined with the linear trapezoidal rule for increasing values and log trapezoidal rule for decreasing values up to the last measurable concentration (AUC0-last). The first order elimination rate constant ke was calculated as the slope (minimum 3 points) from the terminal log plasma concentration time curve. The maximum concentration (Cmax) and the time taken to achieve the peak concentration (Tmax) after oral dose were obtained directly from the plasma concentration data without interpolation. The theoretical background and interpretation of the pharmacokinetic data was based on. Where appropriate, data are expressed as the mean ± standard error of the mean. Means were statistically analysed by either pre-planned t tests or a one-sample t test comparing the measured value with the expected value.

[5] = 0.30 h after p.o. N-Acetyl-DL-Leucine 100 mg/kg
[6] = 2.00 h after p.o. N-Acetyl-DL-Leucine 100 mg/kg
[7] = male, BALB/c, mouse, skeletal muscle, oral, 100 mg/kg, 0.30 h after p.o. N-Acetyl-DL-Leucine 100 mg/kg
[8] = 0.15 h after p.o. N-Acetyl-L-Leucine 100 mg/kg, individual mice
[9] = 0.30 h after p.o. N-Acetyl-L-Leucine 100 mg/kg, individual mice
[10] = 1.00 h after p.o. N-Acetyl-L-Leucine 100 mg/kg, individual mice
[11] = 2.00 h after p.o. N-Acetyl-L-Leucine 100 mg/kg, individual mice
[12] = 4.00 h after p.o. N-Acetyl-L-Leucine 100 mg/kg, individual mice
[13] = 6.00 h after p.o. N-Acetyl-L-Leucine 100 mg/kg, individual mice
[14] = 8.00 h after p.o. N-Acetyl-L-Leucine 100 mg/kg, individual mice
[15] = 24.0 h after p.o. N-Acetyl-L-Leucine 100 mg/kg, individual mice
[16] = 32.0 h after p.o. N-Acetyl-L-Leucine 100 mg/kg, individual mice
[17] = 48.0 h after p.o. N-Acetyl-L-Leucine 100 mg/kg, individual mice
[18] = male, BALB/c, mouse, in vivo, po, 100 mg/kg
[19] = male, BALB/c, mouse, plasma, oral, 100 mg/kg, concentration in plasma, 0.30 h after p.o. N-Acetyl-L-Leucine 100 mg/kg, individual mice
[20] = male, BALB/c, mouse, plasma, oral, 100 mg/kg, concentration in plasma, 6.00 h after p.o. N-Acetyl-L-Leucine 100 mg/kg, individual mice
[21] = male, BALB/c, mouse, plasma, po, 100 mg/kg
[22] = plasma, after oral N-Acetyl-L-Leucine, nominal dose 100 mg/kg
[23] = plasma, after oral N-Acetyl-L-Leucine, nominal dose 100 mg/kg, 100 mg/kg
[24] = plasma, after oral N-Acetyl-L-Leucine, nominal dose 100 mg/kg, listed as D-enantiomer, 100 mg/kg
[25] = plasma, after oral N-Acetyl-L-Leucine, nominal dose 100 mg/kg, listed as L-enantiomer, 100 mg/kg

CC(=O)NC(CC(C)C)C(=O)O (racemic) [N-Acetyl-DL-Leucine, N-acetyl-DL-leucine]
elimination half-life [1]: 60 to 108 min

CC(=O)N[C@H](CC(C)C)C(=O)O [N-Acetyl-D-Leucine, N-acetyl-D-leucine]
concentration in muscle [2, 5]: 4370 ng/mL and 3590 ng/mL | concentration in muscle ([2]; 0.30 h after p.o. N-Acetyl-L-Leucine 100 mg/kg): 1110 ng/mL and 1520 ng/mL | concentration in muscle [2, 6]: 335 ng/mL and 396 ng/mL and 829 ng/mL | concentration in muscle ([2]; 2.00 h after p.o. N-Acetyl-L-Leucine 100 mg/kg): 119 ng/mL and 109 ng/mL | concentration at 0.3 h [2, 7]: 2860 ng/mL | concentration at 0.3 h ([2]; male, BALB/c, mouse, skeletal muscle, oral, 100 mg/kg, 0.30 h after p.o. N-Acetyl-L-Leucine 100 mg/kg): 1090 ng/mL | concentration at 2 h ([2]; male, BALB/c, mouse, skeletal muscle, oral, 100 mg/kg, 2.00 h after p.o. N-Acetyl-L-Leucine 100 mg/kg): 112 ng/mL | concentration in brain ([3]; 0.30 h after p.o. N-Acetyl-DL-Leucine 100 mg/kg, individual mice): 357 ng/mL and 491 ng/mL and 888 ng/mL | concentration in brain ([3]; 2.00 h after p.o. N-Acetyl-DL-Leucine 100 mg/kg, individual mice): <LoQ | concentration at 2 h ([3]; male, BALB/c, mouse, brain, oral, 100 mg/kg, 2.00 h after p.o. N-Acetyl-DL-Leucine 100 mg/kg, individual mice): 117 ng/mL | concentration in plasma [4, 8]: 391 ng/mL and 336 ng/mL | concentration in plasma [4, 9]: 463 ng/mL and 388 ng/mL | concentration in plasma [4, 10]: 116 ng/mL and 144 ng/mL and 248 ng/mL | concentration in plasma [4, 11]: <LoQ and 45.6 ng/ml | concentration in plasma [4, 12]: <LoQ | concentration in plasma [4, 13]: <LoQ and 21.4 ng/ml | concentration in plasma [4, 14]: 15.0 ng/ml and <LoQ | concentration in plasma [4, 15]: <LoQ | concentration in plasma [4, 16]: <LoQ | concentration in plasma [4, 17]: <LoQ | actual dose proportionality for AUC ([4]; male, BALB/c, mouse, in vivo): 101 fold | actual dose proportionality for Cmax ([4]; male, BALB/c, mouse, in vivo): 197 fold | Clast [4, 18]: 247 ng/mL | Cmax [4, 18]: 86100 ng/mL | Tmax [4, 18]: < 15 min | half-life [4, 18]: 18.6 min | k el [4, 18]: 0.000611 s⁻¹ | ke [4, 18]: 2.2 | concentration at 0.15 h ([4]; male, BALB/c, mouse, plasma, oral, 100 mg/kg, concentration in plasma, 0.15 h after p.o. N-Acetyl-L-Leucine 100 mg/kg, individual mice): 582 ng/mL | concentration at 0.3 h [4, 19]: 392 ng/mL | concentration at 2 h ([4]; male, BALB/c, mouse, plasma, oral, 100 mg/kg, concentration in plasma, 2.00 h after p.o. N-Acetyl-L-Leucine 100 mg/kg, individual mice): 33.4 ng/mL | concentration at 6 h [4, 20]: 23.3 ng/mL | concentration at 8 h ([4]; male, BALB/c, mouse, plasma, oral, 100 mg/kg, concentration in plasma, 8.00 h after p.o. N-Acetyl-L-Leucine 100 mg/kg, individual mice): 17.3 ng/mL | Cmax [4, 21]: 436 ng/mL | Tmax [4, 21]: < 15 min | half-life [4, 21]: 15 min | k el [4, 21]: 0.000472 s⁻¹ | AUC0-last [4, 22]: 573 h x ng/mL | ke [4, 22]: 1.7 | Clast [4, 23]: 16.2 ng/mL | Tlast [4, 23]: 8.00 h | Clast [4, 24]: 16 ng/mL | Tlast [4, 24]: 8 h

CC(=O)N[C@@H](CC(C)C)C(=O)O [N-Acetyl-L-Leucine, N-acetyl-L-leucine]
concentration in muscle [2, 5]: 605 ng/mL and 566 ng/mL | concentration in muscle [2, 6]: 364 ng/mL and 154 ng/mL and 193 ng/mL | concentration in muscle ([2]; 6.00 h after p.o. N-Acetyl-DL-Leucine 100 mg/kg): 159 ng/mL and 189 ng/mL | concentration in muscle ([2]; 24.0 h after p.o. N-Acetyl-DL-Leucine 100 mg/kg): 195 ng/mL and 153 ng/mL | concentration in muscle ([2]; 48.0 h after p.o. N-Acetyl-DL-Leucine 100 mg/kg): 102 ng/mL | concentration at 0.3 h [2, 7]: 469 ng/mL | concentration at 6 h ([2]; male, BALB/c, mouse, skeletal muscle, oral, 100 mg/kg, 6.00 h after p.o. N-Acetyl-DL-Leucine 100 mg/kg): 108 ng/mL | concentration at 24 h ([2]; male, BALB/c, mouse, skeletal muscle, oral, 100 mg/kg, 24.0 h after p.o. N-Acetyl-DL-Leucine 100 mg/kg): 136 ng/mL | concentration at 48 h ([2]; male, BALB/c, mouse, skeletal muscle, oral, 100 mg/kg, 48.0 h after p.o. N-Acetyl-DL-Leucine 100 mg/kg): 124 ng/mL | detection in brain ([3]; following oral dosing with the racemate, Fig 6B): not detectable at any time point | concentration in plasma [4, 8]: 9090 ng/mL and 12400 ng/mL and 28900 ng/mL | concentration in plasma [4, 9]: 7520 ng/mL and 10500 ng/mL | concentration in plasma [4, 10]: 1590 ng/mL and 4280 ng/mL and 5300 ng/mL | concentration in plasma [4, 11]: 73 ng/mL and 663 ng/mL and 502 ng/mL | concentration in plasma [4, 12]: 131 ng/mL and 139 ng/mL and 304 ng/mL | concentration in plasma [4, 13]: <LoQ and 114 ng/ml | concentration in plasma [4, 14]: <LoQ | concentration in plasma [4, 15]: <LoQ | concentration in plasma [4, 16]: <LoQ | concentration in plasma [4, 17]: <LoQ | actual dose proportionality for AUC ([4]; male, BALB/c, mouse, in vivo): 4.6 fold | actual dose proportionality for Cmax ([4]; male, BALB/c, mouse, in vivo): 4.9 fold | Clast [4, 18]: 623 ng/mL | Cmax [4, 18]: 3410 ng/mL | Tmax [4, 18]: < 15 min | half-life [4, 18]: 24 min | k el [4, 18]: 0.000778 s⁻¹ | ke [4, 18]: 2.8 | concentration at 0.3 h [4, 19]: 7510 ng/mL | concentration at 6 h [4, 20]: 222 ng/mL | Cmax [4, 21]: 16800 ng/mL | Tmax [4, 21]: < 15 min | half-life [4, 21]: 17.4 min | k el [4, 21]: 0.000667 s⁻¹ | Clast [4, 22]: 168 ng/mL | ke [4, 22]: 2.4 | AUC0-last [4, 23]: 11 400 h x ng/mL | Tlast [4, 23]: 6.00 h | AUC0-last [4, 25]: 11400 h x ng/mL | Tlast [4, 25]: 6 h
